The source of these data is patent US9365502B2, “Neuroactive substituted cyclopenta[b]phenanthrenes as modulators for GABA type-A receptors” (priority 2013, dated 2016).

By melting point is commonly meant the temperature, or range, at which the solid turns liquid. A word on the IC50: it is the concentration that inhibits the measured activity by half. As usually defined, the EC50 is the concentration giving half of the maximal effect.

Read-outs that look alike come from different tables or passages of the source.

Data set [1] deals with picrotoxin binding site on GABAA receptors. The data set can be described thus: [35S]-TBPS displacement (inhibition of [35S]-TBPS binding). The settings on record: mean ± SEM, duplicate experiments performed in triplicate. As to the method:
The IC50 values for non-competitive displacers of [^35S]-TBPS from the picrotoxin binding site on GABAA receptors are reported in Table 1.
Results presented are from duplicate experiments performed in triplicate. Error limits are calculated as standard error of the mean. Methods used are known in the art (see Jiang, X., et al., Neurosteroid analogues. 9. Conformationally constrained pregnanes: structure-activity studies of 13,24-cyclo-18,21-dinorcholane analogues of the GABA modulatory and anesthetic steroids (3α,5α)- and […]. J. Med. Chem., 46: 5334-48 (2003)—the contents of which are hereby incorporated by reference in their entirety).

Data set [2] has as its system Tadpole. Description: Tadpole loss of righting (LRR) and loss of swimming (LSR) reflexes. The class given is in vivo. The settings on record: ± SEM. As to the method: Table 3 discloses the anesthetic effects of the compounds of the present disclosure. In particular, the anesthetic effect of the compounds of the present disclosure on Loss of Righting Reflex (LRR) and Loss of Swimming Reflex (LSR).
Methods used are known in the art (see Jiang, X., et al.). Error limits are calculated as standard error of the mean (N=10 or more animals at each of five or more different concentrations).

Data set [3] concerns the target rat α1β2γ2L type GABAA receptors expressed in Xenopus laevis oocytes (Rattus norvegicus (Rat), UniProt P62813+P63138, INS375LLRMFSFK). The data set can be described thus: Potentiation of GABA-mediated chloride currents, oocyte electrophysiology. The class given is cell-based. The settings on record: ± SEM. On the procedure: The compounds of the present disclosure were evaluated for the ability to potentiate chloride currents mediated by 2 μM GABA at rat α1β2γ2L type GABAA receptors expressed in Xenopus laevis oocytes and the results are shown in Table 2.
The GABA concentration used for the control response was 2 μM. Each compound was evaluated on at least four different oocytes at the concentrations indicated, and the results reported are the ratio of currents measured in the presence/absence of added compound. Gating represents direct current gated by 10 μM compound in the absence of GABA, and this current is reported as the ratio of compound only current/2 μM GABA current. Error limits are calculated as standard error of the mean (N≧4). Methods used are known in the art (see Jiang, X., et al.).

On to `C[C@@]12C[C@@H]3CC[C@H]4C[C@H](O)CC[C@@H]4[C@H]3C[C@H]1CC[C@H]2C#N`, for which the melting point was in the range of 163 to 165 °C. The same measure, in the same setting: the value for `CC(=O)[C@H]1CC[C@H]2C[C@@H]3[C@H](CC[C@@H]4C[C@@H](O)CC[C@H]43)C[C@@]21C` was 131 to 133 °C; that for `C[C@@]12C[C@@H]3CC[C@@H]4C[C@H](O)CC[C@@H]4[C@H]3C[C@H]1CCC2=O` (stereo in doubt) was 174 to 176 °C. The same measure, in the same setting: the same measure for `C[C@@]12CC[C@H](O)C[C@H]1CC[C@@H]1C[C@@]3(C)[C@@H](CC[C@@]34CO4)C[C@H]12`: 138 to 140 °C; for `C[C@]12CC(=O)C[C@@H]1C[C@H]1[C@@H](CC[C@H]3C[C@H](O)CC[C@@H]31)C2`: 165 to 166 °C; for `C[C@]12C[C@H]3CC[C@@H]4C[C@@H](O)CC[C@H]4[C@@H]3C[C@@H]1CC[C@@H]2[N+](=O)[O-]`: 157 to 159 °C.

For the molecule `C[C@]12C[C@H]3CC[C@@H]4C[C@@H](O)CC[C@@]4(C)[C@@H]3C[C@@H]1CC[C@@H]2C#N`, the melting point was in the range of 145 to 147 °C. Same read-out and setting: the value for `C[C@@]12CC[C@H](O)C[C@H]1CC[C@@H]1C[C@]3(C)C(=O)CC[C@H]3C[C@H]12` was 179 to 181 °C; that for `C[C@@]12CC[C@H](O)C[C@H]1CC[C@@H]1C[C@]3(C)C(C#N)=CC[C@H]3C[C@H]12` (stereo in doubt) was 170 to 172 °C. Still for that read-out and setting: the same measure for `C[C@@]12C[C@@H]3CC[C@@H]4C[C@H](O)CC[C@@H]4[C@H]3C[C@H]1CC[C@]21CO1`: 163 to 165 °C. In data set [1], `C[C@@]12CC[C@@H](O)C[C@@H]1CC[C@H]1C[C@@]3(C)[C@H](CC[C@@]34CO4)C[C@@H]12` [MQ-85] registered an IC50 of 29 ± 7 nM. Besides, the 50% effective concentration (EC50) worked out at 350 ± 20 nM in data set [2] (loss of righting reflex, read-out: Tadpole LRR EC50) and 550 ± 10 nM in data set [2] (loss of swimming reflex, read-out: Tadpole LSR EC50). The “Oocyte electrophysiology 0.1 μM (ratio of currents in presence/absence of compound)” value in data set [3] (0.1 μM compound, 2 μM GABA, N>=4) is listed as 2.08 ± 0.23. In addition, the “Oocyte electrophysiology 1.0 μM (ratio of currents in presence/absence of compound)” value in data set [3] (1.0 μM compound, 2 μM GABA, N>=4) is reported as 9.59 ± 1.77. Moreover, in data set [3] (10 μM compound in the absence of GABA), the “Oocyte electrophysiology (gating) 10 μM (ratio of compound only current/2 μM GABA current)” value turned out to be 0.10 ± 0.02. In addition, the “Oocyte electrophysiology 10 μM (ratio of currents in presence/absence of compound)” value in data set [3] (10 μM compound, 2 μM GABA, N>=4) worked out at 17.18 ± 3.31. The molecule `CC(=O)[C@@H]1CC[C@@H]2C[C@H]3[C@@H](CC[C@H]4C[C@H](O)CC[C@@H]43)C[C@]21C` had a melting point of 128 to 130 °C. The same measure, in the same setting: the value for `C[C@]12C[C@H]3CC[C@H]4C[C@@H](O)CC[C@H]4[C@@H]3C[C@@H]1CCC2=O` was 175 to 177 °C; that for `C[C@@]12C[C@@H]3CC[C@H]4C[C@H](O)CC[C@@H]4[C@H]3C[C@H]1CC[C@]21CO1` was 165 to 167 °C; that for `C[C@]12C[C@H]3CC[C@@H]4C[C@@H](O)CC[C@H]4[C@@H]3C[C@@H]1CC[C@@H]2C#N` was 162 to 164 °C.
